Assays:
CRTH2 [1] = target: T1, CRTH2 (Homo sapiens, UniProt Q9Y5Y4); experiment: Human Whole Blood CD11b Antagonist Assay; type: cell-based; conditions: eosinophil CD11b expression, challenge with 15R-Methyl-PGD2 (10 nM)
T1 construct: polymorphonuclear cells (0.5 ml; 10^6/ml cells) in PBS containing 0.9 mM CaCl2 and 0.5 mM MgCl2; endogenous in cells; host or cells: polymorphonuclear cells (eosinophils gated by flow cytometry)
T1 sequence (Q9Y5Y4 1-395): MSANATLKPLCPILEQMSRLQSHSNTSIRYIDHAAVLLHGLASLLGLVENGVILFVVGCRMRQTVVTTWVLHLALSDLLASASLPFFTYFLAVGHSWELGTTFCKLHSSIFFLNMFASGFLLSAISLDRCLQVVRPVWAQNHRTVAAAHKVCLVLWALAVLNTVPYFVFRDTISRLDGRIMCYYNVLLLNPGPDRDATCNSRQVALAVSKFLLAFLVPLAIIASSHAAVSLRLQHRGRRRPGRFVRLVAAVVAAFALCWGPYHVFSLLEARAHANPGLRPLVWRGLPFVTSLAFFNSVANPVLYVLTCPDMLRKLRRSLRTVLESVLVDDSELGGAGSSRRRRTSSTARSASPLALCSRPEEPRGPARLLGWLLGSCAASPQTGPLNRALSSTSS
Experimental: Human Whole Blood CD11b Antagonist Assay (modified from Nicholson, et al. Pulmonary Pharmacology and Therapeutics: 20 (2007); 52-59). The potential CRTH2 antagonist activity of certain compounds was tested in human whole blood using an assay that tests the ability of the compounds to block the CD11b expression in eosinophils by 15-R-methyl-PGD2. A CRTH2 antagonist should block CD11b expression by subsequently added 15-Methyl-PGD2. Human whole blood (200 μL) was incubated at 37° C. for 10 minutes in the presence of various concentrations of test compounds before being challenged with the agonist 15R-Methyl-PGD2 (10 nM). Reactions were terminated by the addition of ice-cold PBS+0.5% BSA+2 mMEDTA (1 mL) and centrifugation (300×g for 5 minutes at 4° C.) Cells were then incubated at 4° C. for 10 min in the presence of human IgG. Cells were then incubated for 30-45 min with a mixture of PE-Cy5-labeled mouse anti-human CD16 (10 ul; BD Biosciences) and FITC-labeled mouse anti-human CD11b (10 μL; Beckman Coulter.) After rinsing (1 mL ice-cold PBS+0.5% BSA+2 mMEDTA), red blood cells were lysed by the addition of 1 mL ice-cold H2O to the cell pellet for 30 sec-1 min immediately followed by the addition of 3.5% NaCl (300 μL.) Cells were then rinsed (2x−1 ml ice cold PBS+0.5% BSA+2 mMEDTA) and fixed in PBS containing 1% formaldehyde. The distribution of fluorescence intensities was measured by flow cytometry. Eosinophils were gated out on the basis of their granularity (high side scatter) and absence of CD-16. CD11b was then measured on this eosinophil population on the basis of fluorescence due to FITC.

CRTH2 [2] = target: T1, CRTH2; experiment: DPBS CD11b Antagonist Assay; type: cell-based; conditions: polymorphonuclear cells in PBS, eosinophil CD11b expression, challenge with 15R-Methyl-PGD2 (10 nM)
Outline: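 Human polymorphonuclear cells (10^6/ml, PBS with 0.9 mM CaCl2, 0.5 mM MgCl2) preincubated with compound 10 min at room temperature, then stimulated with 10 nM 15R-methyl-PGD2. Eosinophil CD11b (FITC) measured by flow cytometry, gating on high side scatter and VLA-4; corrected for isotype control.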

[3] = system: DK-PGD2-induced systemic eosinophilia; experiment: DK-PGD2-Induced Systemic Eosinophilia in Rats; type: in vivo; conditions: Rattus norvegicus, Eosinophil; female Sprague-Dawley rats, oral dosing 30 min before intracardiac 10 μg DK-PGD2, blood eosinophils at 60 min
Experimental: DK-PGD2-Induced Systemic Eosinophilia in Rats. Female Sprague-Dawley rats (175-250 g) were dosed orally with test compound (or vehicle). Thirty minutes after dosing, animals were anaesthetized with isoflurane. Following induction of anaesthesia, animals received an intracardiac injection of 10 μg DK-PGD2 in 0.3 ml heparinized (10 U/ml) saline. Control animals received an injection of 0.3 ml heparinized saline. Sixty minutes after the intracardiac injection, animals were again anesthetized with isoflurane and a blood sample was drawn from the abdominal aorta (into heparin) while the rat was anaesthetized but not dead. An aliquot of blood (500 μL) was mixed with an equal volume of 4% dextran (mw 500,000) and the erythrocytes were allowed to settle. A cytospin preparation was made from the resulting leukocyte rich fraction (top) and the cytospin was fixed and stained with Diff-Quick Stain kit (Dade Behring Inc, Newark, Del.). An aliquot of the leukocyte rich fraction was taken for total leukocyte count using flow cytometer (Guava EasyCyte Mini system). Differential leukocyte counts were obtained from the cytospin preparations. Blood eosinophil numbers were determined from the total leukocyte count and the percentage eosinophils.

| IC50 (CRTH2 [1]) [µM] | IC50 (CRTH2 [2]) [µM] | SMILES | ED50 [3] [mg/kg] |
| --- | --- | --- | --- |
| 0.005 to 0.1 | < 0.005 | Cc1c(Cc2ccc(S(=O)(=O)N3CCCC3)cc2)c2c(n1CC(=O)O)CCCC2 [Example I-1, 2-(2-Methyl-3-(4-(pyrrolidin-1-ylsulfonyl)benzyl)-4,5,6,7-tetrahydro-1H-indol-1-yl)acetic acid] | 1 to 10 |
| 0.1 to 0.5 | < 0.005 | Cc1c(Cc2ccc(S(=O)(=O)NC3CCCCC3)cc2)c2c(n1CC(=O)O)CCCC2 [Example I-2, 2-(3-(4-(N-Cyclohexylsulfamoyl)benzyl)-2-methyl-4,5,6,7-tetrahydro-1H-indol-1-yl)acetic acid] | 1 to 10 |
| 0.005 to 0.1 | < 0.005 | Cc1c(Cc2ccc(S(=O)(=O)N3CCCC3)cc2)c2c(n1CC(=O)O)CCC(C)(C)C2 [Example I-4, 2-(2,5,5-Trimethyl-3-(4-(pyrrolidin-1-ylsulfonyl)benzyl)-4,5,6,7-tetrahydro-1H-indol-1-yl)acetic acid] | < 1 |
| 0.1 to 0.5 | < 0.005 | Cc1c(Cc2ccc(S(=O)(=O)N3CCOCC3)cc2)c2c(n1CC(=O)O)CCC(C)(C)C2 [Example I-11, 2-(2,5,5-Trimethyl-3-(4-(morpholinosulfonyl)benzyl)-4,5,6,7-tetrahydro-1H-indol-1-yl)acetic acid] | < 1 |
| 0.005 to 0.1 | < 0.005 | Cc1c(Cc2ccccc2S(=O)(=O)N2CCOCC2)c2c(n1CC(=O)O)CCC(C)(C)C2 [Example I-17, 2-(2,5,5-Trimethyl-3-(2-(morpholinosulfonyl)benzyl)-4,5,6,7-tetrahydro-1H-indol-1-yl)acetic acid] | < 1 |
| 0.005 to 0.1 | 0.005 to 0.1 | Cc1c(Cc2ccc(S(=O)(=O)N3CCCC3)cc2)c2c(n1CC(=O)O)CCCCC2 [Example I-20, 2-(2-Methyl-3-(4-(pyrrolidin-1-ylsulfonyl)benzyl)-5,6,7,8-tetrahydrocyclohepta[b]pyrrol-1(4H)-yl)acetic acid] | < 1 |
| 0.1 to 0.5 | 0.005 to 0.1 | Cc1c(Cc2ccccc2S(=O)(=O)N2CCOCC2)c2c(n1CC(=O)O)CCCCC2 [Example I-21, 2-(2-Methyl-3-(2-(morpholinosulfonyl)benzyl)-5,6,7,8-tetrahydrocyclohepta[b]pyrrol-1(4H)-yl)acetic acid] | < 1 |
| 0.005 to 0.1 | < 0.005 | Cc1c(Cc2ccccc2S(=O)(=O)N2CCOCC2)c2c(n1CC(=O)O)CC(C)(C)CC2=O [Example I-40, 2-(2,6,6-trimethyl-3-(2-(morpholinosulfonyl)benzyl)-4-oxo-4,5,6,7-tetrahydro-1H-indol-1-yl)acetic acid] | < 1 |
| 0.005 to 0.1 | < 0.005 | Cc1c(Cc2ccccc2S(=O)(=O)N2CCCC2)c2c(n1CC(=O)O)CC(C)(C)CC2=O [Example I-43, 2-(2,6,6-trimethyl-4-oxo-3-(2-(pyrrolidin-1-ylsulfonyl)benzyl)-4,5,6,7-tetrahydro-1H-indol-1-yl)acetic acid] | < 1 |
|  | < 0.005 | Cc1c(Cc2ccccc2S(=O)(=O)N(C)c2ccccc2)c2c(n1CC(=O)O)CC(C)(C)CC2=O [Example I-49, 2-(2,6,6-trimethyl-3-(2-(N-methyl-N-phenylsulfamoyl)benzyl)-4-oxo-4,5,6,7-tetrahydro-1H-indol-1-yl)acetic acid] | 1 to 10 |
|  | 0.1 to 0.5 | CCOC(=O)Cn1c(C)c(Cc2ccccc2S(=O)(=O)N2CCCC2)c2c1CC(C)(C)CC2=O [Example I-51, ethyl 2-(2,6,6-trimethyl-4-oxo-3-(2-(pyrrolidin-1-ylsulfonyl)benzyl)-4,5,6,7-tetrahydro-1H-indol-1-yl)acetate] | < 1 |
|  | 0.1 to 0.5 | Cc1c(Cc2ccccc2S(=O)(=O)N2CCCC2)c2c(n1CC(=O)OC(C)C)CC(C)(C)CC2=O [Example I-55, isopropyl 2-(2,6,6-trimethyl-4-oxo-3-(2-(pyrrolidin-1-ylsulfonyl)benzyl)-4,5,6,7-tetrahydro-1H-indol-1-yl)acetate] | < 1 |

— patent US20110312945A1, “CRTH2 MODULATORS” (priority 2008, published 2011)
